Publication PMC6979384, “Characterization of the plant homeodomain (PHD) reader family for their histone tail interactions” (Epigenetics & Chromatin, 2020)

What was measured:
Test in all cases: Histone peptide microarray
Format in all cases: binding, human
Settings in all cases: total n = 4
AIRE (PP) = test system: AIRE (PP)
Method in brief: (§1)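 A peptide microarray holding 293 synthetic histone peptides with individual or combinatorial modifications was probed with each GST-PHD protein at 0.5 μM. Values represent mean intensity (±SD) from four replicates.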

BAZ2B = test system: BAZ2B
Method in brief: as §1

BPTF (PB) = test system: BPTF (PB)
Method in brief: as §1

CHD4 (PPCC) = test system: CHD4 (PPCC)
Method in brief: as §1

CHD5 (PCC) = test system: CHD5 (PCC)
Method in brief: as §1

CHD5 (PPCC) = test system: CHD5 (PPCC)
Method in brief: as §1

DIDO1 = test system: DIDO1
Method in brief: as §1

DPF2 (PPC2W2) = test system: DPF2 (PPC2W2)
Method in brief: as §1

ING1 = test system: ING1
Method in brief: as §1

ING2 = test system: ING2
Method in brief: as §1

ING3 = test system: ING3
Method in brief: as §1

ING4 = test system: ING4
Method in brief: as §1

ING5 = test system: ING5
Method in brief: as §1

KDM4C (TTP) = test system: KDM4C (TTP)
Method in brief: as §1

KDM5A (1) = test system: KDM5A (1)
Method in brief: as §1

KDM5A (3) = test system: KDM5A (3)
Method in brief: as §1

KDM5B (1) = test system: KDM5B (1)
Method in brief: as §1

KDM5B (3) = test system: KDM5B (3)
Method in brief: as §1

KDM7A = test system: KDM7A
Method in brief: as §1

MLL5 = test system: MLL5
Method in brief: as §1

MORC3 (CW) = test system: MORC3 (CW)
Method in brief: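 Each reader, produced as a GST fusion and purified, was tested at 0.5 μM on synthetic histone peptides (293 in total) carrying single or combinatorial marks. Intensities averaged over four replicates.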

PHF13 = test system: PHF13
Method in brief: as §1

PHF21A = test system: PHF21A
Method in brief: as §1

PHF23 = test system: PHF23
Method in brief: as §1

PHF2 = test system: PHF2
Method in brief: as §1

PHF8 = test system: PHF8
Method in brief: as §1

PHRF1 (RP) = test system: PHRF1 (RP)
Method in brief: as §1

RAG2 = test system: RAG2
Method in brief: as §1

SP140L = test system: SP140L
Method in brief: as §1

TAF3 = test system: TAF3
Method in brief: as §1

TRIM66 (PB) = test system: TRIM66 (PB)
Method in brief: as §1

[1] = sheet "Array Heatmap", GST-tagged reader, histone peptide array

H3K14ac (1-32): H3 1-32
Array Heatmap value (peptide array signal) (AIRE (PP); AIRE (PP), sheet "Array Heatmap", each array performed twice): 0.6762
Array Heatmap value (peptide array signal) (BAZ2B; BAZ2B, sheet "Array Heatmap", each array performed twice): 0.5612
Array Heatmap value (peptide array signal) (BPTF (PB); BPTF (PB), sheet "Array Heatmap", each array performed twice): 0.3702
Array Heatmap value (peptide array signal) (CHD4 (PPCC); CHD4 (PPCC), sheet "Array Heatmap", each array performed twice): 0.5914
Array Heatmap value (peptide array signal) (CHD5 (PCC); CHD5 (PCC), sheet "Array Heatmap", each array performed twice): 0.9008
Array Heatmap value (peptide array signal) (CHD5 (PPCC); CHD5 (PPCC), sheet "Array Heatmap", each array performed twice): 0.6129
Array Heatmap value (peptide array signal) (DIDO1; DIDO1, sheet "Array Heatmap", each array performed twice): 0.6524
Array Heatmap value (peptide array signal) (DPF2 (PPC2W2); DPF2 (PPC2W2), sheet "Array Heatmap", each array performed twice): 0.88
Array Heatmap value (peptide array signal) (ING1; ING1, sheet "Array Heatmap", each array performed twice): 0.5563
Array Heatmap value (peptide array signal) (ING2; ING2, sheet "Array Heatmap", each array performed twice): 0.6065
Array Heatmap value (peptide array signal) (ING3; ING3, sheet "Array Heatmap", each array performed twice): 0.5035
Array Heatmap value (peptide array signal) (ING4; ING4, sheet "Array Heatmap", each array performed twice): 0.5113
Array Heatmap value (peptide array signal) (ING5; ING5, sheet "Array Heatmap", each array performed twice): 0.3965
Array Heatmap value (peptide array signal) (KDM4C (TTP); KDM4C (TTP), sheet "Array Heatmap", each array performed twice): 0.5844
Array Heatmap value (peptide array signal) (KDM5A (1); KDM5A (1), sheet "Array Heatmap", each array performed twice): 0.5739
Array Heatmap value (peptide array signal) (KDM5A (3); KDM5A (3), sheet "Array Heatmap", each array performed twice): 0.5824
Array Heatmap value (peptide array signal) (KDM5B (1); KDM5B (1), sheet "Array Heatmap", each array performed twice): 0.7332
Array Heatmap value (peptide array signal) (KDM5B (3); KDM5B (3), sheet "Array Heatmap", each array performed twice): 0.5322
Array Heatmap value (peptide array signal) (KDM7A; KDM7A, sheet "Array Heatmap", each array performed twice): 0.4771
Array Heatmap value (peptide array signal) (MLL5; MLL5, sheet "Array Heatmap", each array performed twice): 0.5315
Array Heatmap value (peptide array signal) (MORC3 (CW); MORC3 (CW), sheet "Array Heatmap", each array performed twice): 0.4902
Array Heatmap value (peptide array signal) (PHF13; PHF13, sheet "Array Heatmap", each array performed twice): 0.6445
Array Heatmap value (peptide array signal) (PHF21A; PHF21A, sheet "Array Heatmap", each array performed twice): 0.5508
Array Heatmap value (peptide array signal) (PHF23; PHF23, sheet "Array Heatmap", each array performed twice): 0.5387
Array Heatmap value (peptide array signal) (PHF2; PHF2, sheet "Array Heatmap", each array performed twice): 0.4742
Array Heatmap value (peptide array signal) (PHF8; PHF8, sheet "Array Heatmap", each array performed twice): 0.4423
Array Heatmap value (peptide array signal) (PHRF1 (RP); PHRF1 (RP), sheet "Array Heatmap", each array performed twice): 0.5867
Array Heatmap value (peptide array signal) (RAG2; RAG2, sheet "Array Heatmap", each array performed twice): 0.2609
Array Heatmap value (peptide array signal) (SP140L; SP140L, sheet "Array Heatmap", each array performed twice): 0.4015
Array Heatmap value (peptide array signal) (TAF3; TAF3, sheet "Array Heatmap", each array performed twice): 0.3178
Array Heatmap value (peptide array signal) (TRIM66 (PB); TRIM66 (PB), sheet "Array Heatmap", each array performed twice): 0.5901

H3K14ac + K18ac: H3 1-20
Array Heatmap signal (histone peptide microarray) (AIRE (PP); GST-tagged AIRE (PP), sheet Array Heatmap, each array performed twice): 1
Array Heatmap signal (histone peptide microarray) (BAZ2B; GST-tagged BAZ2B, sheet Array Heatmap, each array performed twice): 0.8123
Array Heatmap signal (histone peptide microarray) (BPTF (PB); GST-tagged BPTF (PB = PHD + Bromodomain), sheet Array Heatmap, each array performed twice): 0.357
Array Heatmap signal (histone peptide microarray) (CHD4 (PPCC); GST-tagged CHD4 (PPCC = Dual PHD + Dual Chromodomain), sheet Array Heatmap, each array performed twice): 0.581
Array Heatmap signal (histone peptide microarray) (CHD5 (PCC); GST-tagged CHD5 (PCC = PHD + Dual Chromodomain), sheet Array Heatmap, each array performed twice): 0.8723
Array Heatmap signal (histone peptide microarray) (CHD5 (PPCC); GST-tagged CHD5 (PPCC = Dual PHD + Dual Chromodomain), sheet Array Heatmap, each array performed twice): 0.5768
Array Heatmap signal (histone peptide microarray) (DIDO1; GST-tagged DIDO1, sheet Array Heatmap, each array performed twice): 0.658
Array Heatmap signal (histone peptide microarray) (DPF2 (PPC2W2); GST-tagged DPF2 (PPC2W2 = Dual PHD + C2W2-type Zn-finger), sheet Array Heatmap, each array performed twice): 0.9185
Array Heatmap signal (histone peptide microarray) (ING1; GST-tagged ING1, sheet Array Heatmap, each array performed twice): 0.5141
Array Heatmap signal (histone peptide microarray) (ING2; GST-tagged ING2, sheet Array Heatmap, each array performed twice): 0.6014
Array Heatmap signal (histone peptide microarray) (ING3; GST-tagged ING3, sheet Array Heatmap, each array performed twice): 0.4502
Array Heatmap signal (histone peptide microarray) (ING4; GST-tagged ING4, sheet Array Heatmap, each array performed twice): 0.4542
Array Heatmap signal (histone peptide microarray) (ING5; GST-tagged ING5, sheet Array Heatmap, each array performed twice): 0.355
Array Heatmap signal (histone peptide microarray) (KDM4C (TTP); GST-tagged KDM4C (TTP = Tandem Tudor domain + PHD), sheet Array Heatmap, each array performed twice): 0.5291
Array Heatmap signal (histone peptide microarray) (KDM5A (1); GST-tagged KDM5A (1), sheet Array Heatmap, each array performed twice): 0.555
Array Heatmap signal (histone peptide microarray) (KDM5A (3); GST-tagged KDM5A (3), sheet Array Heatmap, each array performed twice): 0.6717
Array Heatmap signal (histone peptide microarray) (KDM5B (1); GST-tagged KDM5B (1), sheet Array Heatmap, each array performed twice): 0.7675
Array Heatmap signal (histone peptide microarray) (KDM5B (3); GST-tagged KDM5B (3), sheet Array Heatmap, each array performed twice): 0.6502
Array Heatmap signal (histone peptide microarray) (KDM7A; GST-tagged KDM7A, sheet Array Heatmap, each array performed twice): 0.4239
Array Heatmap signal (histone peptide microarray) (MLL5; GST-tagged MLL5, sheet Array Heatmap, each array performed twice): 0.5196
Array Heatmap signal (histone peptide microarray) (MORC3 (CW); GST-tagged MORC3 (CW = CW-type Zn-finger), sheet Array Heatmap, each array performed twice): 0.487
Array Heatmap signal (histone peptide microarray) (PHF13; GST-tagged PHF13, sheet Array Heatmap, each array performed twice): 0.5985
Array Heatmap signal (histone peptide microarray) (PHF21A; GST-tagged PHF21A, sheet Array Heatmap, each array performed twice): 0.5152
Array Heatmap signal (histone peptide microarray) (PHF23; GST-tagged PHF23, sheet Array Heatmap, each array performed twice): 0.5075
Array Heatmap signal (histone peptide microarray) (PHF2; GST-tagged PHF2, sheet Array Heatmap, each array performed twice): 0.4774
Array Heatmap signal (histone peptide microarray) (PHF8; GST-tagged PHF8, sheet Array Heatmap, each array performed twice): 0.3925
Array Heatmap signal (histone peptide microarray) (PHRF1 (RP); GST-tagged PHRF1 (RP), sheet Array Heatmap, each array performed twice): 0.8706
Array Heatmap signal (histone peptide microarray) (RAG2; GST-tagged RAG2, sheet Array Heatmap, each array performed twice): 0.2663
Array Heatmap signal (histone peptide microarray) (SP140L; GST-tagged SP140L, sheet Array Heatmap, each array performed twice): 0.4262
Array Heatmap signal (histone peptide microarray) (TAF3; GST-tagged TAF3, sheet Array Heatmap, each array performed twice): 0.337
Array Heatmap signal (histone peptide microarray) (TRIM66 (PB); GST-tagged TRIM66 (PB = PHD + Bromodomain), sheet Array Heatmap, each array performed twice): 0.934

H3K14me2: H3 1-20 [Peptide H3K14me2]
Array Heatmap signal, AIRE (PP) (AIRE (PP); [1]): 0.5905
Array Heatmap signal, BAZ2B (BAZ2B; [1]): 0.5017
Array Heatmap signal, BPTF (PB) (BPTF (PB); [1]): 0.3583
Array Heatmap signal, CHD4 (PPCC) (CHD4 (PPCC); [1]): 0.6389
Array Heatmap signal, CHD5 (PCC) (CHD5 (PCC); [1]): 0.8497
Array Heatmap signal, CHD5 (PPCC) (CHD5 (PPCC); [1]): 0.5851
Array Heatmap signal, DIDO1 (DIDO1; [1]): 0.7549
Array Heatmap signal, DPF2 (PPC2W2) (DPF2 (PPC2W2); [1]): 0.7618
Array Heatmap signal, ING1 (ING1; [1]): 0.5677
Array Heatmap signal, ING2 (ING2; [1]): 0.6018
Array Heatmap signal, ING3 (ING3; [1]): 0.5043
Array Heatmap signal, ING4 (ING4; [1]): 0.4752
Array Heatmap signal, ING5 (ING5; [1]): 0.3792
Array Heatmap signal, KDM4C (TTP) (KDM4C (TTP); [1]): 0.5414
Array Heatmap signal, KDM5A (1) (KDM5A (1); [1]): 0.5072
Array Heatmap signal, KDM5A (3) (KDM5A (3); [1]): 0.5469
Array Heatmap signal, KDM5B (1) (KDM5B (1); [1]): 0.6811
Array Heatmap signal, KDM5B (3) (KDM5B (3); [1]): 0.5212
Array Heatmap signal, KDM7A (KDM7A; [1]): 0.4126
Array Heatmap signal, MLL5 (MLL5; [1]): 0.5639
Array Heatmap signal, MORC3 (CW) (MORC3 (CW); [1]): 0.4726
Array Heatmap signal, PHF13 (PHF13; [1]): 0.6476
Array Heatmap signal, PHF21A (PHF21A; [1]): 0.4799
Array Heatmap signal, PHF23 (PHF23; [1]): 0.5616
Array Heatmap signal, PHF2 (PHF2; [1]): 0.4838
Array Heatmap signal, PHF8 (PHF8; [1]): 0.3636
Array Heatmap signal, PHRF1 (RP) (PHRF1 (RP); [1]): 0.7403
Array Heatmap signal, RAG2 (RAG2; [1]): 0.2574
Array Heatmap signal, SP140L (SP140L; [1]): 0.3561
Array Heatmap signal, TAF3 (TAF3; [1]): 0.2982
Array Heatmap signal, TRIM66 (PB) (TRIM66 (PB); [1]): 0.6527
